# Reference: publication PMC7894426, “Influence of verapamil on the pharmacokinetics of rotundic acid in rats and its potential mechanism” (Pharmaceutical Biology, 2021)
# Experiments:
# [1] = Bidirectional transport across Caco-2 cell monolayer; assay type: in vitro ADME, human; conditions: human, pH 7.4, Caco-2, 25 µM RA, without verapamil
# Description: (§1) The qualified monolayers were used for transport studies. […] Each experiment was carried out in triplicate.
# P-gp [2] = assay: as above; assay type: in vitro ADME, human; conditions: human, pH 7.4, with verapamil 50 µM, Caco-2, 25 µM RA, + 50 µM verapamil
# Description: as §1
# CYP1A2 = target: T1, CYP1A2 (Homo sapiens, UniProt P05177); assay: Metabolic depletion of RA by rhCYP1A2; assay type: in vitro ADME; conditions: rhCYP1A2 25 pM, RA 2 µM, 30 min
# T1 construct: purchased Research Institute for Liver Disease (Shanghai) Co., Ltd
# T1 sequence (P05177 1-516): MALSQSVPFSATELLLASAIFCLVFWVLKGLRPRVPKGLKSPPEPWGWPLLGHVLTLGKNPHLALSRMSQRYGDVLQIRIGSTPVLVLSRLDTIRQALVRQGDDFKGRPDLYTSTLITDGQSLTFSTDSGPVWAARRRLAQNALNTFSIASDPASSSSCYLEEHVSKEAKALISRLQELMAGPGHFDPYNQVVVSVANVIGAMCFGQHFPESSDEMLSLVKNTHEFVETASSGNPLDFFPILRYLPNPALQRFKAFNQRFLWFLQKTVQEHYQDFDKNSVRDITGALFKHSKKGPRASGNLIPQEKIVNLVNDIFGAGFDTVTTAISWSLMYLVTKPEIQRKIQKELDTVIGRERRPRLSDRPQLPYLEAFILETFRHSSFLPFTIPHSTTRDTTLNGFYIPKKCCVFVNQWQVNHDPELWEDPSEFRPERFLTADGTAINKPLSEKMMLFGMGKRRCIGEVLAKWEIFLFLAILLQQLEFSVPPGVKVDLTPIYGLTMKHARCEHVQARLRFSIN
# Description: (§2) The metabolic stability of RA was evaluated against five rhCYPs (1A2, 2C8, 2C9, 2D6 and 3A4). Incubation was taken place in 0.1 M sodium phosphate buffer (pH 7.4) containing 5 mM MgCl2, 1 mM NADPH, and 25 pM rhCYP enzyme protein at 37 °C in a total volume of 1 mL. After pre-incubated for 5 min, the reactions were started by the addition of RA methanol solution (final concentration of 2 µM). Aliquots of 50 µL incubation solution were collected from the reaction at 0, 5, 10, 20 and 30 min, and quenched with 50 µL ice-cold methanol (containing 0.5% formic acid) and 100 µL ice-cold acetonitrile containing IS (10 ng/mL). The heat-inactivated rhCYP3A4 were used as negative controls. All reactions were conducted in triplicate, followed by LC-MS/MS analysis. Results presented in percentage of drug remaining in incubation starting at 100% at time zero.
# CYP2C8 = target: T2, CYP2C8 (Homo sapiens, UniProt P10632); assay: Metabolic depletion of RA by rhCYP2C8; assay type: in vitro ADME; conditions: rhCYP2C8 25 pM, RA 2 µM, 30 min
# T2 construct: purchased Research Institute for Liver Disease (Shanghai) Co., Ltd
# T2 sequence (P10632 1-490): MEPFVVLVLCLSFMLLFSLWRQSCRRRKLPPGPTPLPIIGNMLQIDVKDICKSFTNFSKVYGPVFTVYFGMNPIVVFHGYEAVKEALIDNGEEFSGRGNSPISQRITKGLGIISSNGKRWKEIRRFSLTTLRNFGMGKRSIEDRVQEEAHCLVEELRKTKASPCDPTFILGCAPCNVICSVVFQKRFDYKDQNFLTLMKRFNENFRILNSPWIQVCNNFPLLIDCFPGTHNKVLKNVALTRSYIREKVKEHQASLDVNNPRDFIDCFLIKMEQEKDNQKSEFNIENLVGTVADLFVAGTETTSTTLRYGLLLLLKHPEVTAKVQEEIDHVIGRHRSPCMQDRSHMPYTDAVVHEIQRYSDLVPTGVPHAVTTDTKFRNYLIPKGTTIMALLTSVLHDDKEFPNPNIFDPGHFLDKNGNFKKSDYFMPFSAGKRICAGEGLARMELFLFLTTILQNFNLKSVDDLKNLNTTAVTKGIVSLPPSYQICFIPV
# Description: as §2
# CYP3A4 = target: T3, CYP3A4 (Homo sapiens, UniProt P08684); assay: Metabolic depletion of RA by rhCYP3A4; assay type: in vitro ADME
# T3 construct: purchased Research Institute for Liver Disease (Shanghai) Co., Ltd
# Description: as §2
# Caco-2 cells = assay: MTS cell-proliferation assay; assay type: cell-based, human; conditions: 25 µM RA
# [3] = rats, oral administration; ref Nan et al. [2016]; cited from earlier work
# P-gp [4] = target: P-gp (Homo sapiens, UniProt P08183); assay: Bidirectional transport across MDCKII-MDR1 cell monolayers (P-gp substrate assessment); conditions: dog, MDCK-MDR1, pH 7.4
# Description: MDCKII-Mock and MDCKII-MDR1 cells were given as a gift by Fuji Biomedix Co., Ltd. (Japan) and cultured in DMEM supplemented with 10% FBS and 1% antibiotic (10,000 U/mL penicillin and 10 mg/mL streptomycin). Caco-2 cell line, the human epithelial cell used in this assay, was purchased from the Cell Bank of the Chinese Academy of Sciences (Shanghai, China) and maintained between 30 and 45 passages. It was cultured according to the previous report (Guo et al. [2018]; Xiang et al. [2020]). Briefly, the Caco-2 cells were cultured in DMEM supplemented with 10% FBS, 1% NEAA, and 1% antibiotic (10,000 U/mL penicillin and 10 mg/mL streptomycin). All cells were maintained in a 5% CO2 atmosphere and 90% relative humidity at 37 °C.
# For transport studies, the MDCKII-Mock, MDCKII-MDR1, and Caco-2 cells were seeded at a density of 2 × 10^5 cells/mL on Costar Transwell inserts (1.12 cm^2 surface, polycarbonate, 12 mm diameter, 0.4 µm pore size). MDCKII-Mock and MDCKII-MDR1 cells were cultured for 5–7 days in medium, for the first four days, the medium was replaced freshly every two days, and then daily. The Caco-2 cells were cultured for 19–21 days in the medium. For the first 2 weeks, the medium was replaced freshly every two days, and then daily. […] The transepithelial electrical resistance (TEER) of the monolayer cells was measured by Millcell ERS-2 (Millipore, USA), and only the monolayer with TEER exceeding 150 Ω·m^2 (MDCKII-Mock and MDCKII-MDR1 cells) and 400 Ω·m^2 (Caco-2 cells) were used for the transport experiment. The membrane integrity and transport function of MDCKII-Mock, MDCKII-MDR1, and Caco-2 cell monolayers were further verified with Lucifer yellow and Rhodamine-123. The qualified monolayers were used for transport studies.
# Before the transport studies, the media in both chambers of the transwell were replaced by warm (37 °C) Hank’s balanced salt solution (HBSS), and then the MDCKII-Mock, MDCKII-MDR1, and Caco-2 cell monolayers were incubated at 37 °C and 5% CO2 for 20 min. […] Our transport studies included absorptive direction transport from the apical (AP) side to the basolateral (BL) side and secretory direction transport from the BL side to the AP side. […] After administration, the transwell plate was placed in a thermostatic oscillator shaking at 60 rpm and 37 °C. At 10, 20, 40 and 60 min, respectively, 50 µL incubating sample aliquot was collected from the receiver chamber and immediately replaced by the same volume of fresh HBSS (37 °C). In addition, the membrane integrity of MDCKII-Mock, MDCKII-MDR1, and Caco-2 cell monolayers were evaluated with Lucifer yellow (30 µM) and TEER value, and the efflux activity of P-gp was validated using a typical P-gp substrate rhodamine-123 (10 µM).
# The parameters Papp, RE, and NRE were calculated using the following equation: Papp=(ΔQ/Δt)×[1/(A×C0)]
# [5] = 10 min, read-out: RE (efflux ratio)
# [6] = 20 min, read-out: RE (efflux ratio)
# [7] = 40 min, read-out: RE (efflux ratio)
# [8] = 60 min, read-out: RE (efflux ratio)
# Sequence of P-gp (Homo sapiens, UniProt P08183) (P08183 whole entry): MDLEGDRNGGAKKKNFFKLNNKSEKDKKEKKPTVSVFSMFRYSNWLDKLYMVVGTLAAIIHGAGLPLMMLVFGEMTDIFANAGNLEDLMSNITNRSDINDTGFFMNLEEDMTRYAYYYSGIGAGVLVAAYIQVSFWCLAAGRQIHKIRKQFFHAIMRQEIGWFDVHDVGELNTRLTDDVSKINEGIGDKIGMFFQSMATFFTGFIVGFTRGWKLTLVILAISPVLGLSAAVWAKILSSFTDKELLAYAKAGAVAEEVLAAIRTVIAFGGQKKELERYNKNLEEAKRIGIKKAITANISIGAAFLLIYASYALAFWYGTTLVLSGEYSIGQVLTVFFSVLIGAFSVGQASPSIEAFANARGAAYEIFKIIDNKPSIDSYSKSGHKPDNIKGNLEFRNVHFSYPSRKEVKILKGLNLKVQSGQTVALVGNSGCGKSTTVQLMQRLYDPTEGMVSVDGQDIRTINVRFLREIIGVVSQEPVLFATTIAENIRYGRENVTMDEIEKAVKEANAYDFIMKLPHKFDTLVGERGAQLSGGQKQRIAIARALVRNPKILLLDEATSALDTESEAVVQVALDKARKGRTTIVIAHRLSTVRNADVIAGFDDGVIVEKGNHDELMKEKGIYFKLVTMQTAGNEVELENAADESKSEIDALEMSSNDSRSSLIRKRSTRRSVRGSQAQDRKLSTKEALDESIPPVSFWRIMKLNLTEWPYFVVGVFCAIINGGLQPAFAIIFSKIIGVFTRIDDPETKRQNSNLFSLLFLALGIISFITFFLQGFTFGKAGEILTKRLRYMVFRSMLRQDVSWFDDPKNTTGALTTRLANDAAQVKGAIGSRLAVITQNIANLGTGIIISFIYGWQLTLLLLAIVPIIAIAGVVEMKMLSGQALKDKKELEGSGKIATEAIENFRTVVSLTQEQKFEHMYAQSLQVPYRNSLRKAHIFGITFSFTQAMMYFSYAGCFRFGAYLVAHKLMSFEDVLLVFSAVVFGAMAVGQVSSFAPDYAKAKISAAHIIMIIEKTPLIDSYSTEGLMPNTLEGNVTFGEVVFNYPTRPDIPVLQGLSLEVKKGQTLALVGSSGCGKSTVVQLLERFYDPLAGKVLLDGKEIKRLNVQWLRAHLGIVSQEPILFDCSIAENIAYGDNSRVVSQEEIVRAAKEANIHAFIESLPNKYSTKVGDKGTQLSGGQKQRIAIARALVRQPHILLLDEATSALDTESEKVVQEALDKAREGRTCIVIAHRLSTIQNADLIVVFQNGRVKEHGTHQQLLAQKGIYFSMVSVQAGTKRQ
# T3 sequence (P08684 whole entry): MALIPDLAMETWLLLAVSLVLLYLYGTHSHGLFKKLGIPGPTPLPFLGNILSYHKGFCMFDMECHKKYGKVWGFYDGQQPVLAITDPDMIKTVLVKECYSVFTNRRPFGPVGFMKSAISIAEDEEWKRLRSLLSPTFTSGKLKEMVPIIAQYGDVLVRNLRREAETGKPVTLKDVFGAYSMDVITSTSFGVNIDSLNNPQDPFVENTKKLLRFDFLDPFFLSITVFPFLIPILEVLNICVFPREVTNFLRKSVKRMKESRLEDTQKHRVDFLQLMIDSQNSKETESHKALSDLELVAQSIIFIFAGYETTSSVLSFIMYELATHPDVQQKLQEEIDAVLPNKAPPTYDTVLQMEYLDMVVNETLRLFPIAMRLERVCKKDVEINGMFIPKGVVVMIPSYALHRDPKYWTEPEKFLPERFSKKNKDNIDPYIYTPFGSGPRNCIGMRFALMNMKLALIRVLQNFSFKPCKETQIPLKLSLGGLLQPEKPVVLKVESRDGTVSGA
smiles,measurement,setting,value
"C[C@@H]1CC[C@]2(C(=O)O)CC[C@]3(C)C(=CC[C@@H]4[C@@]5(C)CC[C@H](O)[C@@](C)(CO)[C@@H]5CC[C@]43C)[C@@H]2[C@]1(C)O [RA, Rotundic acid]",efflux ratio at 25 µM,"[1]; 10–60 min, read-out: Papp (BL→AP) relative to Papp (AP→BL)",2
same,"Papp A→B at 10 min, 25 µM",[1]; 10 min,0.468 ± 0.0625 ×10⁻⁶ cm/s
same,"Papp B→A at 10 min, 25 µM",[1]; 10 min,3.25 ± 0.35 ×10⁻⁶ cm/s
same,"efflux ratio at 10 min, 25 µM",[1]; [5],6.93
same,"Papp A→B at 20 min, 25 µM",[1]; 20 min,0.776 ± 0.128 ×10⁻⁶ cm/s
same,"Papp B→A at 20 min, 25 µM",[1]; 20 min,5.45 ± 0.806 ×10⁻⁶ cm/s
same,"efflux ratio at 20 min, 25 µM",[1]; [6],7.02
same,"Papp A→B at 40 min, 25 µM",[1]; 40 min,2.8 ± 0.467 ×10⁻⁶ cm/s
same,"Papp B→A at 40 min, 25 µM",[1]; 40 min,7.13 ± 0.36 ×10⁻⁶ cm/s
same,"efflux ratio at 40 min, 25 µM",[1]; [7],2.55
same,"Papp A→B at 60 min, 25 µM",[1]; 60 min,2.84 ± 0.441 ×10⁻⁶ cm/s
same,"Papp B→A at 60 min, 25 µM",[1]; 60 min,6.56 ± 0.941 ×10⁻⁶ cm/s
same,"efflux ratio at 60 min, 25 µM",[1]; [8],2.31
same,"Papp A→B at 10 min, 25 µM",P-gp [2]; 10 min,1.07 ± 0.212 ×10⁻⁶ cm/s
same,"Papp B→A at 10 min, 25 µM",P-gp [2]; 10 min,2.73 ± 0.348 ×10⁻⁶ cm/s
same,"efflux ratio at 10 min, 25 µM",P-gp [2]; [5],2.55
same,"Papp A→B at 20 min, 25 µM",P-gp [2]; 20 min,2.45 ± 0.707 ×10⁻⁶ cm/s
same,"Papp B→A at 20 min, 25 µM",P-gp [2]; 20 min,5.32 ± 0.306 ×10⁻⁶ cm/s
same,"efflux ratio at 20 min, 25 µM",P-gp [2]; [6],2.17
same,"Papp A→B at 40 min, 25 µM",P-gp [2]; 40 min,4.69 ± 0.945 ×10⁻⁶ cm/s
same,"Papp B→A at 40 min, 25 µM",P-gp [2]; 40 min,5.68 ± 0.683 ×10⁻⁶ cm/s
same,"efflux ratio at 40 min, 25 µM",P-gp [2]; [7],1.21
same,"Papp A→B at 60 min, 25 µM",P-gp [2]; 60 min,4.71 ± 0.524 ×10⁻⁶ cm/s
same,"Papp B→A at 60 min, 25 µM",P-gp [2]; 60 min,5.29 ± 0.438 ×10⁻⁶ cm/s
same,"efflux ratio at 60 min, 25 µM",P-gp [2]; [8],1.12
same,metabolism of RA (substrate depletion),CYP1A2,hardly metabolized
same,RA converted,CYP2C8,< 30%
same,degradation in negative control,"CYP3A4; heat-inactivated rhCYP3A4, RA 2 µM",No obvious degradation
same,RA converted,"CYP3A4; rhCYP3A4 25 pM, RA 2 µM, 30 min",88.2%
same,effect on cell proliferation (MTS),Caco-2 cells,did not influence the cell proliferation
same,oral bioavailability,[3],4.52%
same,Papp A→B at 20 min,P-gp [4],4.22 ± 0.611 ×10⁻⁶ cm/s
same,Papp B→A at 20 min,P-gp [4],12.1 ± 1.55 ×10⁻⁶ cm/s
same,efflux ratio at 20 min,P-gp [4],2.87
